According to patent US20210283064A1, “STABLE, BIOADHESIVE, AND DIFFUSION-RESTRICTIVE COACERVATE” (The Chinese University of Hong Kong, priority 2020, published 2021):

System: DSS-induced colitis
Test: Rat model of DSS-induced colitis
Type: in vivo, SD rats
Settings: H&E-stained colon sections, oral gavage days 1, 3, 5, sacrifice day 7
Source text: SD rats weighing around 250 g were given 4.5% DSS in drinking water for 7 days to develop acute colitis. Clinical manifestations of the colitis, such as severe rectal bleeding, watery diarrhea, and colonic edema were observed after 7 days. […] Untreated colitic SD rats were used as the negative control. All SD rats were allowed unrestricted access to water and standard laboratory diet before and after oral gavage and sacrificed on day 7 for further evaluation of colon weight and length, histological severity, IBD-associated colonic myeloperoxidase (MPO)-activity, mRNA levels of tight junction-associated proteins (ZO-1 and occludin-1) and pro-inflammatory cytokines, such as interleukin IL-1β and tumor necrosis factor (TNF) in the distal colon.

dexamethasone sodium phosphate [Dex-P/PBS]
mean histopathology score: 1.917
